The source of these data is patent US20210369853A1, “TARGETED PROTEASE DEGRADATION PLATFORM” (EUBULUS BIOTHERAPEUTICS INC., priority 2018, published 2021).

SMILES strings stand for the structures. Where two headings read alike, the source gives them in different places.

Common to all, as to assay type: cell-based
One test concerns HUVEC. Kind of test: Cell proliferation experiment (EC50), HUVEC. The following applies: Homo sapiens.
The test system of test [1] is Human Colon Cancer HCT-116. Kind of test: Cell proliferation experiment (Alarm blue, 72 h, EC50). The following applies: Homo sapiens, HCT-116; HCT116 cells. The gist of the method: (§1)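 EC50 values derive from Alamar blue fluorescence measured after cells in 96-well plates were incubated 72 h with compound diluted 5-fold per step in complete medium.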
The subject of test [2] is Human Acute Myelomonocytic Leukemia HL-60. The test is described as above. Particulars: HL-60 cells. The gist of the method: as §1
For test [3], the system named is Human Monocytic Leukemia MV4-11. The test is described as above. Particulars: Homo sapiens, MV4-11, MV4;11 cells. The method, boiled down:
as §1

The next test concerns PBMC. Kind of test: Cell proliferation experiment (EC50), PBMC.
The test system of test [4] is Daudi. Kind of test: Cell proliferation experiment (EC50), Daudi. The following applies: Homo sapiens; Daudi cells.
In a further test the test system is Human Colon Cancer HT-29. Kind of test: Cell proliferation experiment (Alarm blue, 72 h, EC50). Particulars: Homo sapiens; HT-29 cells. The method, boiled down: as §1
For test [5], the system named is Human Glioma Cells U-87 MG. Described as above. Particulars: Homo sapiens; U-87MG cells. The gist of the method: as §1
Test [6] has as its system Human Small Cell Lung Cancer NCI-H82. The test is described as above. Particulars: Homo sapiens, NCI-H82; NCIH82 cells. The method, boiled down: as §1
For a further test, the system named is A549. Kind of test: Cell proliferation experiment (EC50), A549. Particulars: Homo sapiens; A549 cells.
For test [7], the system named is Human cervical adenocarcinoma cells Hela. Kind of test: Cell proliferation experiment (Alarm blue, 72 h, EC50). The following applies: Homo sapiens. The gist of the method: as §1
Test [8] relates to Human Ovarian Cancer SK-OV-3. Described as above. Particulars: Homo sapiens, SK-OV-3; SKO3 cells. The gist of the method: as §1
The subject of test [9] is Human Monocytic Leukemia THP-1. The description is as above. Particulars: THP-1 cells. The gist of the method:
as §1

For test [10], the system named is Human Breast Cancer MDA-MB-231. The test is described as above. Particulars: Homo sapiens; MDA-MB-231 cells. The gist of the method:
as §1

The next test deals with T1, PLK1 (Homo sapiens, UniProt P53350).
T1 construct: endogenous in cells
T1 sequence (P53350 whole entry): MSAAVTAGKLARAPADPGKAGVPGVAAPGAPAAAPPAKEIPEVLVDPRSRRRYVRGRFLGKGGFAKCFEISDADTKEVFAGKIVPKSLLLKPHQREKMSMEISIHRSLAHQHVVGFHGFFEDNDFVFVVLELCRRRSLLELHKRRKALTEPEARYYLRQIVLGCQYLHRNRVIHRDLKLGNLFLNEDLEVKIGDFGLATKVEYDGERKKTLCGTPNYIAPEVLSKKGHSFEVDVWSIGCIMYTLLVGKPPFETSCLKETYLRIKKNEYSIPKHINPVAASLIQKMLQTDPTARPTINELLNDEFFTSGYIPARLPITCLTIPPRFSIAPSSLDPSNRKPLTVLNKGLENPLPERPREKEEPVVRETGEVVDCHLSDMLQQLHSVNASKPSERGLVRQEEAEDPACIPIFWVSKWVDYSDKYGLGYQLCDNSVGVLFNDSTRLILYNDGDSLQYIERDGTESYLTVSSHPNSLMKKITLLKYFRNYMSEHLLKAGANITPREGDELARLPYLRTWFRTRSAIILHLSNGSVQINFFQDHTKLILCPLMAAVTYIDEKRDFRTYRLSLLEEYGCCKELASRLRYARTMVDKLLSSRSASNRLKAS
Kind of test: Western blot, protein degradation (DC50). The gist of the method: (§2)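 Protein loss read by ECL Western blot after compound treatment of cells; RIPA lysates run on 4%-12% SDS-PAGE, transferred to PVDF, primary antibody overnight at 4° C. Degradation derived from quantified band intensities.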
(In general: A western blot detects proteins with antibodies after separation by electrophoresis.)

A further test addresses T2, BRD4 (Homo sapiens, UniProt O60885).
T2 construct: endogenous in cells
Kind of test: Western blot, protein degradation (DC50). The method, boiled down:
as §2

The next test relates to U937. Kind of test: Cell proliferation experiment (EC50), U937. Particulars: Homo sapiens, U-937; U937 cells.
Test [11] concerns Daudi. Kind of test: Cell proliferation experiment (EC50), Daudi. Particulars: Homo sapiens; Daudi cells. This is another data set of the same source.

With `O=C1CCC(N2Cc3c(NC(=O)CCOCCOCCOCCNC(=O)c4ccc(Nc5ncc6c(n5)-c5ccc(Cl)cc5C(c5c(F)cccc5F)=NC6)cc4)cccc3C2=O)C(=O)N1` (stereo not drawn) [UB-180535], the concentration giving a half-maximal response (EC50) in the test with HUVEC was greater than 1000 nM; in test [1] it was greater than 1000 nM; in test [2], greater than 1000 nM; in test [3] it was 10 to 100 nM; with PBMC, greater than 1000 nM.
Regarding `CC[C@@H]1C(=O)N(C)c2cnc(Nc3ccc(C(=O)NCCOCCOCCOCCC(=O)Nc4cccc5c4CN(C4CCC(=O)NC4=O)C5=O)cc3OC)nc2N1C1CCCC1` (stereo partly drawn) [UB-180605], the concentration giving a half-maximal response (EC50) was 100 to 1000 nM in the test with Daudi [4]; 100 to 1000 nM in the test with Human Colon Cancer HT-29; 100 to 1000 nM in test [5]; 10 to 100 nM in [3]; 100 to 1000 nM in [6].
Turning to `CC[C@@H]1C(=O)N(C)c2cnc(Nc3ccc(C(=O)NC4CCN(CCOCCNCC(=O)Nc5cccc6c5CN(C5CCC(=O)NC5=O)C6=O)CC4)cc3OC)nc2N1Cc1ccc(Cl)s1` (stereo partly drawn) [UB-180725], the 50% effective concentration (EC50) (with A549; in test [7]; in test [8]; with Human Colon Cancer HT-29; in test [1]; in test [2]) was 100 to 1000 nM each time. The EC50 was in the range of 100 to 1000 nM in [5]; 100 to 1000 nM in test [9]; 10 to 100 nM in test [3]; 100 to 1000 nM in test [6]; 100 to 1000 nM in [10]; 100 to 1000 nM in the test with U937. In addition, in the test on Daudi [11], the EC50 lay in the range of 100 to 1000 nM. Moreover, the DC50 is less than 10 nM on PLK1 (6 h, read-out: PLK1 DC50 (nM) (6 h)); less than 10 nM on PLK1 (24 h, read-out: PLK1 DC50 (nM) (24 h)); less than 10 nM at BRD4 (6 h, read-out: BRD4 DC50 (nM) (6 h)); less than 10 nM at BRD4 (24 h, read-out: BRD4 DC50 (nM) (24 h)).

As a reminder, the EC50 is the concentration needed to bring the measured effect to its halfway point. A low value points to an effect from little substance. For orientation: DC50 means the concentration giving 50% degradation.
